Data as given in publication PMC10205807, “Cross-species comparison in nonclinical pharmacokinetics of lenvatinib by a simple HPLC with ultraviolet detection” (Scientific Reports, 2023).

Experiments:
[1] = phase-1 clinical trial, oral PK in humans; format: in vivo; settings: human, plasma; calculated from AUCoral at 9 mg oral dose in a phase-1 study and fp 0.0172; read-out: observed CLint in humans (converted)
[2] = PK study in rats (intravenous and oral); format: in vivo; settings: for Tmax: median (range)
Protocol: Sprague–Dawley male rats were purchased from Charles River Japan, Inc., and were used for the PK study after 8 days of an acclimatization period. Rats were 8 weeks old when lenvatinib was dosed and the body weight range was 0.28–0.31 (kg). Rats were fasted a day before the PK study and feeding was resumed 4 h postdose. Dosing solution of lenvatinib used in the rat PK study was the same as that in the mice PK study, and the dose levels were 3 mg/kg for the intravenous administration via femoral vein, and 3, 10, and 30 mg/kg for the oral administration by gastric gavage (n = 4/dose). Approximately 0.25 mL of blood samples were obtained from the jugular vein using heparinized syringes at predose, and at 5, 15 and 30 min, and 1, 2, 4, 6, 8, 12 and 24 h postdose. Plasma sample preparation and sample storage were the same as those in the mice PK study.
(§1) PK parameters of lenvatinib were estimated by model independent analysis using a WinNonlin program (Version 4.1, Pharsight Corporation, Mountain View, CA). The time to reach the maximum plasma concentration (Tmax) and the maximum plasma concentration (Cmax) values were obtained directly from the plasma concentration data. Terminal half-life (T1/2) was calculated by ln2/ke, where ke is the slope of the regression line that fits the portion of the terminal phase (at least three time points) in the log-linear concentration–time curve. AUC0–t and AUMC0–t, the area under the concentration–time curves and the area under the first moment curve, from time = zero to time = t, respectively, were calculated using the lenvatinib concentrations in plasma by the linear/log trapezoidal method. AUC0–inf was calculated by AUC0–t + Ct/ke, and AUMC0–inf was AUMC0–t + Ct × t/ke + Ct/(ke)^2, where Ct is the last measurable concentration at time = t. The plasma concentration at time zero for the intravenous dose was extrapolated, while zero was used for the oral doses. Mean residence time (MRT), total plasma clearance (CLtot) and the volume of distribution at steady state (Vdss) were calculated by AUMC0–inf/AUC0–inf, Dose/AUC0–inf and CLtot × MRT, respectively. Oral bioavailability (F) was estimated by comparing dose-normalized AUC0–inf after oral (AUC0–inf.po) and intravenous (AUC0–inf.iv) administration as follows: F (%) = (AUC0–inf.po/AUC0–inf.iv) × 100.

[3] = Cross-species PK summary (mice, rats, dogs, monkeys); format: in vivo, and monkeys; settings: for bioavailability: rat, rats
Protocol: as §1
One of the typical approaches for predicting human PK from animal PK is empirical allometric scaling. As the CLtot of lenvatinib was relatively low and Vdss of lenvatinib was low to medium, thus it is theoretically preferable to correct by fp for both parameters. The CLtot divided by fp (CLtot/fp) or Vdss divided by fp (Vdss/fp) were plotted against body weight (BW) by log–log scale, and a linear regression was performed to estimate a slope and intercept for linear regression. The BW used in the calculation was 0.02, 0.2, 10, 5, and 70 kg for mice, rats, dogs, monkeys, and humans, respectively. CLtot and Vdss of lenvatinib in humans were predicted by using the regression line and the BW of humans. As no PK data of lenvatinib are available for CLtot and Vdss, which can be estimated only from intravenous administration PK study in humans, it is not possible to assess predictability of the allometric scaling for these two parameters of lenvatinib in humans. However, it is possible to predict exposure of lenvatinib after oral administration (AUCoral) in humans from the allometry scaling of hepatic intrinsic clearance (CLint). As lenvatinib is mainly cleared by the liver, AUCoral is estimated by Fa × Fg × Dose/(fp × CLint)[9], where Fa, Fg, fp, and CLint are absorption at the gastrointestinal (GI) tract, metabolic availability at the GI, unbound fraction in plasma, and hepatic intrinsic clearance, respectively. The CLint is thus estimated by Fa × Fg × Dose/(fp × AUCoral) in all the animal species including humans just from PK data from oral administration. The allometric scaling approach was applied for CLint in mice, rats, dogs, and monkeys. The logarithmic plot of CLint and BW was performed for a linear regression and a regression line [log (CLint) = slope × log (BW) + intercept], which was derived by logarithmic transformation of the equation CLint = a × BW^b was obtained. The CLint predicted from the allometric scaling was compared to the observed CLint after oral administration of lenvatinib at 9 mg in humans.

[4] = male, Sprague-Dawley, rat, plasma, intravenous 3 mg/kg
[5] = male, Sprague-Dawley, rat, plasma, oral 3 mg/kg
[6] = male, Sprague-Dawley, rat, plasma, oral 10 mg/kg
[7] = male, Sprague-Dawley, rat, plasma, oral 30 mg/kg

COc1cc2nccc(Oc3ccc(NC(=O)NC4CC4)c(Cl)c3)c2cc1C(N)=O [lenvatinib, Lenvatinib]
CLint scaled [1]: 75.1 mL/min/kg | CLint (hepatic intrinsic clearance) ([2]; estimated from oral PK, Fa and Fg assumed unity, BW 0.2 kg): 1440 mL/h | AUC(0-inf) [2, 4]: 30100 ± 1330 ng·h/mL | MRT [2, 4]: 3.93 ± 0.19 h | C0 ([2]; male, Sprague-Dawley, rat, plasma, intravenous 3 mg/kg, extrapolated): 16000 ± 416 ng/mL | clearance ([2]; male, Sprague-Dawley, rat, plasma, intravenous 3 mg/kg, read-out: CLtot (converted)): 1.67 mL/min/kg | Vd ([2]; male, Sprague-Dawley, rat, plasma, intravenous 3 mg/kg, read-out: Vdss): 0.392 ± 0.0099 L/kg | half-life ([2]; male, Sprague-Dawley, rat, plasma, iv, 3 mg/kg, intravenous 3 mg/kg): 3.65 ± 0.09 h | AUC(0-inf) [2, 5]: 20700 ± 3120 ng·h/mL | Cmax [2, 5]: 6170 ± 1370 ng/mL | MRT [2, 5]: 4.46 ± 0.16 h | bioavailability ([2]; male, Sprague-Dawley, rat, plasma, oral 3 mg/kg vs intravenous 3 mg/kg, read-out: F (oral bioavailability)): 68.7% | Tmax [2, 5]: 0.5 h | AUC(0-inf) [2, 6]: 78300 ± 6580 ng·h/mL | Cmax [2, 6]: 16600 ± 1240 ng/mL | MRT [2, 6]: 6.31 ± 0.53 h | Tmax [2, 6]: 0.5 h | AUC(0-inf) [2, 7]: 146000 ± 18500 ng·h/mL | Cmax [2, 7]: 23200 ± 4770 ng/mL | MRT [2, 7]: 6.86 ± 1.02 h | Tmax [2, 7]: 1 h | half-life ([2]; male, Sprague-Dawley, rat, plasma, po, 3 mg/kg, oral 3 mg/kg): 3.61 ± 0.21 h | half-life ([2]; male, Sprague-Dawley, rat, plasma, po, 10 mg/kg, oral 10 mg/kg): 5.27 ± 0.33 h | half-life ([2]; male, Sprague-Dawley, rat, plasma, po, 30 mg/kg, across 3, 10, and 30 mg/kg): 3.61 to 5.27 h | half-life ([2]; male, Sprague-Dawley, rat, plasma, po, 30 mg/kg, oral 30 mg/kg): 4.95 ± 0.77 h | availability in the intestine ([3]; calculated from CLtot (iv), blood-to-plasma partition, hepatic blood flow, and bioavailability): > 0.7 | clearance ([3]; mouse, dog, monkey, plasma, the other three species (mice, dogs, monkeys), intravenous 3 mg/kg, read-out: CLtot): 3.97 to 6.13 mL/min/kg | bioavailability ([3]; mouse, dog, monkey, plasma, oral, 3 mg/kg, mice, dogs, monkeys, read-out: average bioavailability in the four species): 70% | bioavailability ([3]; mouse, dog, monkey, plasma, po, 3 mg/kg, range over mice, dogs, and monkeys, read-out: oral bioavailability): 64.4 to 78.4% | bioavailability ([3]; mouse, dog, monkey, plasma, po, range over mice, dogs, and monkeys, read-out: oral bioavailability): 64 to 78%
